The target in the first experiment is T1, Interleukin-5 (Mus musculus) (UniProt P04401).
T1 sequence (whole entry): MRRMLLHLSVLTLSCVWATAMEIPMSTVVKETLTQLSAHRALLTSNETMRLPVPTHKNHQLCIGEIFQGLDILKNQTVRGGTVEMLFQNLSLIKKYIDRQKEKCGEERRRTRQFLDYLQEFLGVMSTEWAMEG
Kind of experiment: Inhibition of IL-5 in mouse Y16 cells assessed as reduction in cell proliferation at 50 uM after 48 hrs by WST-1 assay relative to control. The class given is cell-based. A general note: Tetrazolium dyes change colour on reduction, which living cells bring about.
With `O=c1c(-c2ccc(O[C@H]3O[C@@H](CO)[C@H](O)[C@@H](O)[C@@H]3O)cc2)coc2cc(O)cc(O)c12`, the inhibition was determined as 79.1%.

Another experiment deals with T1, Interleukin-5 (Mus musculus). Put plainly: Inhibition of IL-5 in mouse Y16 cells assessed as reduction in cell proliferation at 30 uM after 48 hrs by WST-1 assay relative to control. The class given is cell-based.
As to `CC(C)CCOc1cccc2occ(CN(CCO)C(=O)Nc3ccccc3)c(=O)c12`, the inhibition turned out to be 35%.

On to `CCNC(=O)N(CCO)Cc1coc2cccc(OCC3CCCCC3)c2c1=O`, for which the inhibition is 7%.

With `CC(C)NC(=O)N(CCO)Cc1coc2cccc(OCC3CCCCC3)c2c1=O`, the inhibition was determined as 6%.

With `COc1ccc(NC(=O)N(CCO)Cc2coc3cccc(OCC4CCCCC4)c3c2=O)cc1`, the inhibition was found to be 80%.

With `O=C(Oc1ccccc1)N(CCO)Cc1coc2cccc(OCC3CCCCC3)c2c1=O`, the inhibition was found to be 84%.

Turning to `CC(C)(C)CCOc1cccc2occ(CN(CCO)C(=O)Cc3ccccc3)c(=O)c12`, the inhibition was 46%.

As for `O=C(Cc1ccccc1)N(CCO)Cc1coc2cccc(OCC3CCCCC3)c2c1=O`, the inhibition amounted to 95%.

As for `CC(C)CCOc1cccc2occ(CN(CCO)C(=O)Cc3ccccc3)c(=O)c12`, the inhibition was 37%.

Consider `O=C(Nc1ccc(Cl)cc1)N(CCO)Cc1coc2cccc(OCC3CCCCC3)c2c1=O`, for which the inhibition is 4%.

As to `O=C(NCc1ccccc1)N(CCO)Cc1coc2cccc(OCC3CCCCC3)c2c1=O`, the inhibition amounted to 95%.

On to `CC(C)(C)CCOc1cccc2occ(CN(CCO)C(=O)Oc3ccccc3)c(=O)c12`, for which the inhibition was found to be 36%.

For `O=C(Nc1ccccc1)N(CCO)Cc1coc2cccc(OCC3CCCCC3)c2c1=O`, the inhibition was 61%.

Regarding `O=C(NCCCc1ccccc1)N(CCO)Cc1coc2cccc(OCC3CCCCC3)c2c1=O`, the inhibition was 95%.

Consider `O=C(NC1CCCCC1)N(CCO)Cc1coc2cccc(OCC3CCCCC3)c2c1=O`, for which the inhibition turned out to be 85%.

As for `CCCNC(=O)N(CCO)Cc1coc2cccc(OCC3CCCCC3)c2c1=O`, the inhibition was 15%.

Turning to `CCC(=O)N(CCO)Cc1coc2cccc(OCC3CCCCC3)c2c1=O`, the inhibition amounted to 63%.

With `COc1ccc(CC(=O)N(CCO)Cc2coc3cccc(OCC4CCCCC4)c3c2=O)cc1`, the inhibition stood at 92%.

On to `CC(C)(C)CCOc1cccc2occ(CN(CCO)C(=O)Nc3ccccc3)c(=O)c12`, for which the inhibition amounted to 47%.

Take `CCOC(=O)N(CCO)Cc1coc2cccc(OCC3CCCCC3)c2c1=O`: the inhibition came to 89%.

Consider `CCCC(=O)N(CCO)Cc1coc2cccc(OCC3CCCCC3)c2c1=O`, for which the inhibition stood at 61%.

As for `CC(C)CCOc1cccc2occ(CN(CCO)C(=O)Oc3ccccc3)c(=O)c12`, the inhibition turned out to be 42%.

The inhibition is the drop in the measured response relative to a control, in per cent.

For the origin of these results see ChEMBL document CHEMBL4052709, “Novel analogs of N-acylhydroxyethylaminomethyl-4H-chromen-4-one scaffold as IL-5 inhibitors” (Bioorg Med Chem, 2017).
